Test results: patent US20050209256A1, “Novel beta-turn mimetics as calcitonin gene related peptide receptor antagonists” (priority 2004, published 2005)

molecular target: T1, human CGRP receptor (Homo sapiens, UniProt O60894+Q16602); assay: Radioligand binding assay, [125I]-CGRP competition on SK-N-MC cell homogenates; conditions: Binding data, [125I]-CGRP 40 pM, room temperature
T1 construct: SK-N-MC cells that endogenously express the human CGRP receptor; endogenous in cells; host or cells: SK-N-MC cells (membrane homogenates)
Experimental: Tissue culture. SK-N-MC cells were grown at 37° C. in 5% CO2 as a monolayer in medium consisting of MEM with Earle's salts and L-glutamine (Gibco) supplemented with 10% fetal bovine serum (Gibco).
Radioligand binding assays. Cells were rinsed twice with phosphate-buffered saline (155 mM NaCl, 3.3 mM Na2HPO4, 1.1 mM KH2PO4, pH 7.4), and incubated for 5-10 min. at 4° C. in hypotonic lysis buffer consisting of 10 mM Tris (pH 7.4) and 5 mM EDTA. Cells were transferred from plates to polypropylene tubes (16×100 mm), homogenized and centrifuged at 32,000×g for 30 min. Pellets were resuspended in buffer consisting of 50 mM Tris (pH 7.4) and 1 mM EDTA, homogenized, and centrifuged again at 32,000×g for 30 min. Pellets were resuspended in 100 mM Tris-Cl pH 7.5, 10 mM MgCl2, 0.1% mammalian protease inhibitor cocktail (Sigma) and stored at −80° C. until needed. On the day of an experiment, homogenates were thawed and homogenized again. Binding of [^125I]-CGRP (NEN) was carried out in buffer containing 50 mM Tris-Cl pH 7.5, 5 mM MgCl2, 0.5% BSA. Homogenates (3.5 μg protein/well) were incubated with competitor compounds (solubilized in 100% DMSO at 100× their final assay concentrations) for one hour at room temperature. Then [^125I]-CGRP was added (40 pM final concentration) and the reaction incubated for one additional hour at room temperature. Assays were stopped by addition of cold wash buffer (20 mM Tris-Cl pH 7.5, 0.1% BSA) immediately followed by filtration over glass fiber filters (Whatman GF/B) previously soaked in 0.5% PEI. Non-specific binding was defined with 100 nM CGRP.

| SMILES | IC50 |
| --- | --- |
| CC(=O)c1ccc(OC(=O)N2CCC(=O)N3[C@@H]2CN(CCc2ccccc2)C(=O)[C@@H]3CC2CCCCC2)c(C)c1 [Compound 144, (6S,9aS)-6-Cyclohexylmethyl-4,7-dioxo-8-phenethyl-hexahydro-pyrazino[1,2-a]pyrimidine-1-carboxylic acid 4-acetyl-2-methyl-phenyl ester] | 7400 nM |
| CC(=O)c1ccc(NC(=O)N2CCC(=O)N3[C@@H]2CN(CCc2ccccc2)C(=O)[C@@H]3CC2CCCCC2)cc1 [Compound 65, (6S,9aS)-6-Cyclohexylmethyl-4,7-dioxo-8-phenethyl-hexahydro-pyrazino[1,2-a]pyrimidine-1-carboxylic acid (4-acetyl-phenyl)-amide] | 517 nM |
| C[S+]([O-])c1ccc(NC(=O)N2CCC(=O)N3[C@@H](C4CCCCC4)C(=O)N(CCc4ccccc4)C[C@H]23)cc1 (stereo partly drawn) [Compound 18, (6S,9aS)-6-Cyclohexyl-4,7-dioxo-8-phenethyl-hexahydro-pyrazino[1,2a]pyrimidine-1-carboxylic acid (4-methanesulfinyl-phenyl)-amide] | 293 nM |
| CC(=O)c1ccc(NC(=O)N2CCC(=O)N3C(C[S+]([O-])Cc4ccccc4)C(=O)N(CCc4cccc(F)c4)C[C@H]23)cc1 (stereo in doubt) [Compound 44, (6S,9aS)-8-[2-(3-Fluoro-phenyl)-ethyl]-4,7-dioxo-6-phenylmethanesulfinylmethyl-hexahydro-pyrazino[1,2-a]pyrimidine-1-carboxylic acid (4-acetyl-phenyl)-amide] | 3440 nM |
| CC(=O)c1ccc(NC(=O)N2CCC(=O)N3[C@@H](C4CCNCC4)C(=O)N(CCc4cccc(F)c4)C[C@H]23)cc1 [Compound 43, (6S,9aS)-8-[2-(3-Fluoro-phenyl)-ethyl]-4,7-dioxo-6-piperidin-4-yl-hexahydro-pyrazino[1,2-a]pyrimidine-1-carboxylic acid (4-acetyl-phenyl)-amide] | 4000 nM |
| CC[C@H](C)[C@H]1C(=O)N(CCc2cccc(F)c2)C[C@@H]2N(C(=O)Nc3ccc(C(C)=O)cc3)CCC(=O)N12 [Compound 21, (6S,9aS)-6-(1S-Methyl-propyl)-8-[2-(3-fluoro-phenyl)-ethyl]-4,7-dioxo-hexahydro-pyrazino[1,2-a]pyrimidine-1-carboxylic acid (4-acetyl-phenyl)-amide] | 233 nM |
| CC(=O)c1ccc(NC(=O)N2CCC(=O)N3[C@@H]2CN(CCc2ccccc2)C(=O)[C@@H]3Cc2ccc(F)c(F)c2)cc1 [Compound 63, (6S,9aS)-6-(3,4-Difluoro-benzyl)-4,7-dioxo-8-phenethyl-hexahydro-pyrazino[1,2-a]pyrimidine-1-carboxylic acid (4-acetyl-phenyl)-amide] | 3040 nM |
| CC[C@@H](C)[C@H]1C(=O)N(CCc2cccc(F)c2)C[C@@H]2N(C(=O)Nc3ccc(C(C)=O)cc3)CCC(=O)N12 [Compound 39, (6S,9aS)-6-(1R-methyl-propyl)-8-[2-(3-fluoro-phenyl)-ethyl]--4,7-dioxo-hexahydro-pyrazino[1,2-a]pyrimidine-1-carboxylic acid (4-acetyl-phenyl)-amide] | 233 nM |
| CSCC1C(=O)N(CCc2cccc(F)c2)C[C@@H]2N(C(=O)Nc3ccc(C(C)=O)cc3)CCC(=O)N12 (stereo in doubt) [Compound 37, (6S,9aS)-8-[2-(3-Fluoro-phenyl)-ethyl]-6-methylsulfanylmethyl-4,7-dioxo-hexahydro-pyrazino[1,2-a]pyrimidine-1-carboxylic acid (4-acetyl-phenyl)-amide] | 704 nM |
| CC(=O)c1ccc(NC(=O)N2CCC(=O)N3[C@@H]2CN(CCc2cccc(F)c2)C(=O)[C@@H]3CC2CCCCC2)cc1 [Compound 28, (6S,9aS)-6-Cyclohexylmethyl-8-[2-(3-fluoro-phenyl)-ethyl]-4,7-dioxo-hexahydro-pyrazino[1,2-a]pyrimidine-1-carboxylic acid (4-acetyl-phenyl)-amide] | 188 nM |
| CC(=O)c1ccc(NC(=O)N2CCC(=O)N3[C@@H](C4CCCCC4)C(=O)N(CCc4ccccc4)C[C@H]23)cc1 [Compound 1, (6S,9aS)-6-Cyclohexyl-4,7-dioxo-8-phenethyl-hexahydro-pyrazino[1,2-a]pyrimidine-1-carboxylic acid (4-acetyl-phenyl)-amide] | 80 nM |
| CC(=O)c1ccc(NC(=O)N2CCC(=O)N3[C@@H](C4CCCCC4)C(=O)N(CCc4cccc(Cl)c4)C[C@H]23)cc1 [Compound 135, (6S,9aS)-8-[2-(3-Chloro-phenyl)-ethyl]-6-cyclohexyl-4,7-dioxo-hexahydro-pyrazino[1,2-a]pyrimidine-1-carboxylic acid (4-acetyl-phenyl)-amide] | 7070 nM |
| CC(=O)c1ccc(NC(=O)N2CCC(=O)N3[C@@H](C4CCCCC4)C(=O)N(CCc4cccs4)C[C@H]23)cc1 [Compound 138, (6S,9aS)-6-Cyclohexyl-4,7-dioxo-8-(2-thiophen-2-yl-ethyl)-hexahydro-pyrazino[1,2-a]pyrimidine-1-carboxylic acid (4-acetyl-phenyl)-amide] | 87 nM |
| CC(=O)c1ccc(NC(=O)N2CCC(=O)N3[C@@H]2CN(CCc2cccc(F)c2)C(=O)[C@@H]3Cc2ccccc2)cc1 [Compound 22, (6S,9aS)-6-Benzyl-8-[2-(3-fluoro-phenyl)-ethyl]-4,7-dioxo-hexahydro-pyrazino[1,2-a]pyrimidine-1-carboxylic acid (4-acetyl-phenyl)-amide] | 2190 nM |
| CC(=O)c1ccc(NC(=O)N2CCC(=O)N3[C@@H]2CN(CCc2cccc(F)c2)C(=O)[C@@H]3CCCCNC(=O)OCc2ccccc2)cc1 [Compound 31, (4-{1-(4-Acetyl-phenylcarbamoyl)-(6S,9aS)-8-[2-(3-fluoro-phenyl)-ethyl]-4,7-dioxo-octahydro-pyrazino[1,2-a]pyrimidin-6-yl}-butyl)-carbamic acid benzyl ester] | 1050 nM |
| CC(=O)c1ccc(NC(=O)N2CCC(=O)N3[C@@H](c4ccccc4)C(=O)N(CCc4ccccc4)C[C@H]23)cc1 [Compound 64, (6S,9aS)-4,7-Dioxo-8-phenethyl-6-phenyl-hexahydro-pyrazino[1,2-a]pyrimidine-1-carboxylic acid (4-acetyl-phenyl)-amide] | 473 nM |
| CC(=O)c1ccc(NC(=O)N2CCC(=O)N3[C@@H]2CN(CCc2cccc(F)c2)C(=O)[C@@H]3C)cc1 [Compound 25, (6S,9aS)-8-[2-(3-Fluoro-phenyl)-ethyl]-6-methyl-4,7-dioxo-hexahydro-pyrazino[1,2-a]pyrimidine-1-carboxylic acid (4-acetyl-phenyl)-amide] | 30000 nM |
| CC(=O)c1ccc(NC(=O)N2CCC(=O)N3[C@@H]2CN(CCc2cccc(F)c2)C(=O)[C@@H]3CC[S+](C)[O-])cc1 (mixture of isomers) [Compound 42, (6S,9aS)-8-[2-(3-Fluoro-phenyl)-ethyl]-6-(2-methanesulfinyl-ethyl)-4,7-dioxo-hexahydro-pyrazino [1,2-a]pyrimidine-1-carboxylic acid (4-acetyl-phenyl)-amide] | 778 nM |
| CC(=O)c1ccc(NC(=O)N2CCC(=O)N3C(CSCc4ccccc4)C(=O)N(CCc4cccc(F)c4)C[C@H]23)cc1 (stereo in doubt) [Compound 41, (6S,9aS)-6-Benzylsulfanylmethyl-8-[2-(3-fluoro-phenyl)-ethyl]-4,7-dioxo-hexahydro-pyrazino [1,2-a]pyrimidine-1-carboxylic acid (4-acetyl-phenyl)-amide] | 237 nM |
| O=C1COc2cc(OC(=O)N3CCC(=O)N4[C@@H](C5CCCCC5)C(=O)N(CCc5ccccc5)C[C@H]34)ccc21 [Compound 150, (6S,9aS)-6-Cyclohexyl-4,7-dioxo-8-phenethyl-hexahydro-pyrazino[1,2-a]pyrimidine-1-carboxylic acid 3-oxo-2,3-dihydro-benzofuran-6-yl ester] | 1730 nM |
| CC(=O)c1ccc(NC(=O)N2CCC(=O)N3[C@@H](C4CCOCC4)C(=O)N(CCc4cccc(F)c4)C[C@H]23)cc1 [Compound 52, (6S,9aS)-8-[2-(3-Fluoro-phenyl)-ethyl]-4,7-dioxo-6-(tetrahydro-pyran-4-yl)-hexahydro-pyrazino[1,2-a]pyrimidine-1-carboxylic acid (4-acetyl-phenyl)-amide] | 358 nM |
| CC(=O)c1ccc(NC(=O)N2CCC(=O)N3[C@@H]2CN(CCc2cccc(F)c2)C(=O)[C@@H]3CC(C)C)cc1 [Compound 23, (6S,9aS)-8-[2-(3-Fluoro-phenyl)-ethyl]-6-isobutyl-4,7-dioxo-hexahydro-pyrazino[1,2-a]pyrimidine-1-carboxylic acid (4-acetyl-phenyl)-amide] | 184 nM |
| CC(=O)c1ccc(NC(=O)N2CCC(=O)N3[C@@H]2CN(CCc2cccc(F)c2)C(=O)[C@@H]3COCc2ccccc2)cc1 [Compound 32, (6S,9aS)-6-Benzyloxymethyl-8-[2-(3-fluoro-phenyl)-ethyl]-4,7-dioxo-hexahydro-pyrazino[1,2-a]pyrimidine-1-carboxylic acid (4-acetyl-phenyl)-amide] | 598 nM |
